Series [1] in a line: Cytotoxicity counterscreen, CellTiter Glo, 72 hr. The series is classed as cell-based, human. As to conditions: human, bladder carcinoma 5637 cells (ATCC HTB-9); for CC50 at 72 h: read-out: Mammalian cell toxicity CC50. The gist of the method:
(§1)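 5637 bladder carcinoma cells were exposed to a 10-point compound series (300-0.58 μM, 0.5% DMSO) for 72 h. Viability was measured by CellTiter-Glo luminescence, and TC50 (CC50) was derived, with Hyamine as cytotoxic control.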
On the technique in general: A counterscreen serves to expose hits that act by an unwanted route or on another target.

The test system of series [2] is Bladder carcinoma 5637 cells. As to the kind of experiment: Cytotoxicity counterscreen, CellTiter Glo, 72 hr. Type of series: cell-based, human. As to conditions: bladder carcinoma 5637 cells. A digest of the protocol: as §1
For a further series, the system named is K1 capsule of UTI89. The experiment in a line: Secondary assay 3: orcinol assay for released K1 capsule polysaccharide. Type of series: cell-based, Escherichia coli. The procedure:
E. Secondary Assay 3: Orcinol Secondary Screening for Inhibitors of Bacterial Capsule Biogenesis.
Purpose: This assay was performed only on the probe candidate. […] The biochemical determination of cell-surface associated capsule was performed using UTI89 or the Delta Region I and Delta Region II capsule mutant bacterial strains.
Purpose: This assay was performed only on the probe candidate. […] The biochemical determination of cell-surface associated capsule was performed using UTI89 or the delta Region I and Region II capsule mutant bacterial strains.
Assay Description: The biochemical measurement of cell-surface associated capsule was performed. UTI89 or capsule mutants were grown in culture tubes with and without the test compound (50 μM). The cultures were centrifuged, and the cell pellets were washed in PBS and resuspended in Tris buffer, pH5. […] Released polysaccharide was harvested by separation from whole bacteria by centrifugation followed by deproteination with phenol/chloroform and precipitation with ethanol. The precipitated material was subjected to acid hydrolysis (pH 2 at 80° C. for 1 hr) and incubated with orcinol, which reacts with periodic intermediates to produce a violet color quantified at OD 570 (3) Inhibitors reducing or abrogating surface encapsulation yielded low orcinol levels similar to the capsule export and synthesis mutants (Region I and II). The positive control drug C7 (100 μM final well concentration) was used in this screen.
Endpoint Read: The samples were read at ambient temperature from the bottom for absorbance at A570 in a BioTek Quantplate reader and the degree of orcinol-reactive material was determined based on the absorbance compared to a wild-type encapsulated strain (UTI89) and a standard curve using purified sialic acid.
Orcinol assay for released capsule material. Orcinol reactivity was used as a biochemical confirmation of altered extracellular capsule after compound treatment. UTI89 or an isogenic capsule mutant was grown in 100 μM of test compound or 1% DMSO. The assay was performed as previously described. The molecule C7 (100 μM final concentration) was used as a positive control. The assay was performed 3 times with replicate samples.

The nature of series [3]: Plasma protein binding, human. Type of series: in vitro ADME.
Series [4] has as its target panel of 68 receptors (Homo sapiens, UniProt P02708). As to conditions: Nicotinic Acetylcholine α1, Bungarotoxin, hum, 10 μM.
Series [5] deals with panel of 68 receptors (Homo sapiens, UniProt P03372). To be noted: Estrogen ERα, hum, 10 μM.
In series [6] the target is panel of 68 receptors (Homo sapiens, UniProt P0DMS8). As to conditions: Adenosine A3, hum, 10 μM.
Series [7] addresses panel of 68 receptors (Homo sapiens, UniProt P21728). To be noted: Dopamine D1, hum, 10 μM.
The target of series [8] is panel of 68 receptors (Homo sapiens, UniProt P25103). As to conditions: Tachykinin NK1, hum, 10 μM.
Series [9] addresses panel of 68 receptors (Homo sapiens, UniProt P35372). As to conditions: Opiate μ(OP3, MOP), hum, 10 μM.
In series [10] the target is panel of 68 receptors (Homo sapiens, UniProt P48039). As to conditions: Melatonin MT1, hum, 10 μM.
Series [11] concerns the target panel of 68 receptors (Homo sapiens, UniProt Q01959). As to conditions: Transporter, Dopamine (DAT), hum, 10 μM.
For series [12], the target named is panel of 68 receptors (Homo sapiens, UniProt Q12809). As to conditions: Potassium Channel hERG, hum, 10 μM.
Series [13] concerns the target panel of 68 receptors (Mus musculus, UniProt P13504). As to conditions: Interleukin IL-1, mouse, 10 μM.
Setting [14] is: synthesized sample, SID 126497311.

SMILES strings stand for the structures. Values joined by “and” are separate entries in the source; they are usually repeats but may differ in a detail not shown here. Equal entries are not always repeated. Where two headings read alike, the source gives them in different places.

One may read the CC50 as the concentration at which the toxic effect on the cells reaches its halfway point. A word on the IC50: it is the midpoint of a concentration-inhibition curve. Read a high IC50 as weaker potency in that assay.

Chain of panel of 68 receptors (Homo sapiens, UniProt P02708) (P02708 21-457): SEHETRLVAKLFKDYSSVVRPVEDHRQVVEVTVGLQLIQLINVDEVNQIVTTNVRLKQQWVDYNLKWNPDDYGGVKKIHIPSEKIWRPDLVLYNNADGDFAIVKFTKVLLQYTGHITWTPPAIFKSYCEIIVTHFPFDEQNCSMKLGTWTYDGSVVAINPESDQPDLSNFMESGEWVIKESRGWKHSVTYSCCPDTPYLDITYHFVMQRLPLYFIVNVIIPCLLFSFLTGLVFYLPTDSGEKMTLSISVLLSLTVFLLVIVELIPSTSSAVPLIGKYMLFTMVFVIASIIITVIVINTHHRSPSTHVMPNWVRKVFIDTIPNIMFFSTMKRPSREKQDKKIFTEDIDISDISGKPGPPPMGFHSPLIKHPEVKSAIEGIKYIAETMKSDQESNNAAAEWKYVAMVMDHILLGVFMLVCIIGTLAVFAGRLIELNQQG
Chain of panel of 68 receptors (Homo sapiens, UniProt Q12809) (Q12809 whole entry): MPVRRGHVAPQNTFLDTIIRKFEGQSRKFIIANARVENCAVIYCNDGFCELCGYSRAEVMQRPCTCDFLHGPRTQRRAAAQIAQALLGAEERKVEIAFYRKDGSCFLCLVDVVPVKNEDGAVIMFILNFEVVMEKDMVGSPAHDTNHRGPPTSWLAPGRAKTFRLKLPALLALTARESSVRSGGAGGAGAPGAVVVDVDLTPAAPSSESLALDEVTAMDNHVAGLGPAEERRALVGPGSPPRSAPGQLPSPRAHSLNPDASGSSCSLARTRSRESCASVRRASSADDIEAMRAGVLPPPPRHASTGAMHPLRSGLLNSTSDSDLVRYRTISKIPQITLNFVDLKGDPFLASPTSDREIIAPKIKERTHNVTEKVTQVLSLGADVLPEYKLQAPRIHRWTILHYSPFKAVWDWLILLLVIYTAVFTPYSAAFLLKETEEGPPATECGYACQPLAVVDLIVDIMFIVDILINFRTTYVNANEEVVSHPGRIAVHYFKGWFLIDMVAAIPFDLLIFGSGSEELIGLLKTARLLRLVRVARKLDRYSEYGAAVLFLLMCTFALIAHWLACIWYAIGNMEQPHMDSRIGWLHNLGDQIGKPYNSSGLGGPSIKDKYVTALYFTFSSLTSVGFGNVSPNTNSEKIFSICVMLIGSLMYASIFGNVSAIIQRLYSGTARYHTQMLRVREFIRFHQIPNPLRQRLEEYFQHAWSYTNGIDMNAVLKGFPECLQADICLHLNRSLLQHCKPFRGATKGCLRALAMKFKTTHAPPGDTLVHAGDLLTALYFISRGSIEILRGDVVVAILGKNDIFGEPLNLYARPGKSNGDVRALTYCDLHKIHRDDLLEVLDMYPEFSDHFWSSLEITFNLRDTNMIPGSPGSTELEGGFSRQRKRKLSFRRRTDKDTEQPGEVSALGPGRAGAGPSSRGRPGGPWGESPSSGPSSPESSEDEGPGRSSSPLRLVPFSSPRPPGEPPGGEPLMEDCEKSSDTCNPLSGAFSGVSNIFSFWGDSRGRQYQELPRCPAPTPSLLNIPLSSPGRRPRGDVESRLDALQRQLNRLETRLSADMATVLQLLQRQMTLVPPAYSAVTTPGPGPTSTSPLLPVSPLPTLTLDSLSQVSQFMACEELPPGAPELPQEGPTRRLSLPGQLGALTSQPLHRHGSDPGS
Chain of panel of 68 receptors (Homo sapiens, UniProt Q01959) (Q01959 whole entry): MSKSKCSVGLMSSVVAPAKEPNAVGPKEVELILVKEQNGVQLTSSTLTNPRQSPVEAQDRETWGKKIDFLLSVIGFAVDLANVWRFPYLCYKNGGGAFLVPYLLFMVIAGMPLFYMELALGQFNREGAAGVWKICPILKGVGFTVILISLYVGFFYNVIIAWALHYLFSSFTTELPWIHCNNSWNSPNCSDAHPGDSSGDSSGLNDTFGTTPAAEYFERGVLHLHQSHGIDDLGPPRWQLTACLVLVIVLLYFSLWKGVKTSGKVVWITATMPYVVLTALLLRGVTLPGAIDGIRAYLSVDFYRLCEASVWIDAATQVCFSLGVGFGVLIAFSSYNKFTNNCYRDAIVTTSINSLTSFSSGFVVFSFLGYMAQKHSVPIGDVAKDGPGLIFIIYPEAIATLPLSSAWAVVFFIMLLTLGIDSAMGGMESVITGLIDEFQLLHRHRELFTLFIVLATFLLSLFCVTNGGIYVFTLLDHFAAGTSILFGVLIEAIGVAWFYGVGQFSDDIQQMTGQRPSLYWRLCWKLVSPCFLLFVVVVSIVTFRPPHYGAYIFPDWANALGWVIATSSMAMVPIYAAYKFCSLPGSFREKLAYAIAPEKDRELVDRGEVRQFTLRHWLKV
Chain of panel of 68 receptors (Homo sapiens, UniProt P35372) (P35372 whole entry): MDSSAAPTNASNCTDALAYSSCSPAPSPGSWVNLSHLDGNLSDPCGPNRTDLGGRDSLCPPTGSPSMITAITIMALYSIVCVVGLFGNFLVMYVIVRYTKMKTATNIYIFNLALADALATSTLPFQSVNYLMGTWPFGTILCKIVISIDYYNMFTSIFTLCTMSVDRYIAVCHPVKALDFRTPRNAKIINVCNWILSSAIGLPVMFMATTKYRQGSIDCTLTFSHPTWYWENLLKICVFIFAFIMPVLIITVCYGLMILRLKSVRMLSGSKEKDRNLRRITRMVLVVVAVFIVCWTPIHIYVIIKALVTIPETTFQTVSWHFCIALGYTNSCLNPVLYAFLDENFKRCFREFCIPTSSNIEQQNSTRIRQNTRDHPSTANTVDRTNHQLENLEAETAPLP
Chain of panel of 68 receptors (Mus musculus, UniProt P13504) (P13504 20-576): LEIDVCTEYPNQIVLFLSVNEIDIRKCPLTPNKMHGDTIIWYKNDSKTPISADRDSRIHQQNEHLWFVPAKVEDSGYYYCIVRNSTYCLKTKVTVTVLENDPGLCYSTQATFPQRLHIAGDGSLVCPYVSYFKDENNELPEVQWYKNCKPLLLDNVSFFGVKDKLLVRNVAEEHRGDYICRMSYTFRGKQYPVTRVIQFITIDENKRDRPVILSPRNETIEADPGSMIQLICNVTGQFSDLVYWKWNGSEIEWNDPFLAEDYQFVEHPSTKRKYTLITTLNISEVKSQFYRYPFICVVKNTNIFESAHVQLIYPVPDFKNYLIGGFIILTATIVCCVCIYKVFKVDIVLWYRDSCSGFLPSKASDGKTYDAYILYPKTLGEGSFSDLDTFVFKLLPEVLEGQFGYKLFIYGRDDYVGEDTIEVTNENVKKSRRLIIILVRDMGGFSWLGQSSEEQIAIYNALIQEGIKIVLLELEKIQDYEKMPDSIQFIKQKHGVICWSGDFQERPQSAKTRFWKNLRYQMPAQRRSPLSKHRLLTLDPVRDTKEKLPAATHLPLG
Chain of panel of 68 receptors (Homo sapiens, UniProt P48039) (P48039 whole entry): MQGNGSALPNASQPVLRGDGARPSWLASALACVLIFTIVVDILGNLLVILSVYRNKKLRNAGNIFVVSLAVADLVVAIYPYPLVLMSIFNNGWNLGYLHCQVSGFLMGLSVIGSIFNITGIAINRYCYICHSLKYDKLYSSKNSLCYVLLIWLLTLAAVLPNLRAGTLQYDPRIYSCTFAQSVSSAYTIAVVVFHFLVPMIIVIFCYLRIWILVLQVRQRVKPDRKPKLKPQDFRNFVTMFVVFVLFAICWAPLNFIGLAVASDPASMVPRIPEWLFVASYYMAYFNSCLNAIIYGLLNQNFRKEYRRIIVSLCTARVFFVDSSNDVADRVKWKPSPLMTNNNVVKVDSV
Chain of panel of 68 receptors (Homo sapiens, UniProt P03372) (P03372 whole entry): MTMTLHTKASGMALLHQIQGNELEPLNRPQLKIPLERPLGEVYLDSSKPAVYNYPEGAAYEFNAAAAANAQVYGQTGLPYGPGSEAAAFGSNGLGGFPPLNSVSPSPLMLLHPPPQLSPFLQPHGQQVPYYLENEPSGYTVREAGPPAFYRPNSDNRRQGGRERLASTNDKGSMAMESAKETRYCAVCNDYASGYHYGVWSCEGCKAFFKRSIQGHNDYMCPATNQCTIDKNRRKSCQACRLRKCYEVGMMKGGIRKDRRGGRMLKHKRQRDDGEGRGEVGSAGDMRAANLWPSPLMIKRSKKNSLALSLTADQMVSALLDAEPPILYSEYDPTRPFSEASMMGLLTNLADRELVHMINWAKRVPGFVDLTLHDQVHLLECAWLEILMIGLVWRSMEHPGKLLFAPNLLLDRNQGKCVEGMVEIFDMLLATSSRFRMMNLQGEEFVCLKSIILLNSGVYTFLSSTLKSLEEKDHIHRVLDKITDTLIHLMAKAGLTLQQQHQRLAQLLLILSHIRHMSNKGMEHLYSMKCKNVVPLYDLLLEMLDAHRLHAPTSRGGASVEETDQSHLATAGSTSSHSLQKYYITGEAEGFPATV
Chain of panel of 68 receptors (Homo sapiens, UniProt P21728) (P21728 whole entry): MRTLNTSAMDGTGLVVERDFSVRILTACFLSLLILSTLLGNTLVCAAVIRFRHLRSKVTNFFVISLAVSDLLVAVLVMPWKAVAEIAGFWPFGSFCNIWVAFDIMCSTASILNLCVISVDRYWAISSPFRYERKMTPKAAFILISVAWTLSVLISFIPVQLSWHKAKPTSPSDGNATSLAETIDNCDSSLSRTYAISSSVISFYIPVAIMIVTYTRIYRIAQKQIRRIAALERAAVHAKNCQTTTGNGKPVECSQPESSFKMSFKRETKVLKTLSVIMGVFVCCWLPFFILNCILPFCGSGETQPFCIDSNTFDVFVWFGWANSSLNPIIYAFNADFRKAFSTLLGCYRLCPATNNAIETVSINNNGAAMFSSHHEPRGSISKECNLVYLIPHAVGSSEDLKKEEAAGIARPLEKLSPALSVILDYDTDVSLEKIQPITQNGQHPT
Chain of panel of 68 receptors (Homo sapiens, UniProt P0DMS8) (P0DMS8 whole entry): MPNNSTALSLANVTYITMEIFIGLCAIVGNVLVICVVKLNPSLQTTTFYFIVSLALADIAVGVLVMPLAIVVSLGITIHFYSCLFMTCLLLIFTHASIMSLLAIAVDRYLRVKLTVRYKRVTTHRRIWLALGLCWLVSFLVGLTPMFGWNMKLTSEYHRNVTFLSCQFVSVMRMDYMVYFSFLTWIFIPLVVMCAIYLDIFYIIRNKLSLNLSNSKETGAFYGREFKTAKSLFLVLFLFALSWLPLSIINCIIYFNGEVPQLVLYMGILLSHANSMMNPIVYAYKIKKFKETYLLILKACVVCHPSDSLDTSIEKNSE

Consider `CCOc1ccc(-c2cc(NC(=O)c3c(F)cccc3F)c(C(=O)O)s2)cc1` [ML317, 3-(2,6-difluorobenzamido)-5-(4-ethoxyphenyl)thiophene-2-carboxylic acid], for which the CC50 at 72 h came to 47.2 ± 7.2 µM in [1] (commercial sample, SID 103147605) and 51.6 ± 13.7 µM in series [1] (setting [14]). In addition, the IC50 at 72 h in series [1] (first round of synthetic analogues, n = 3) is 51.6 µM; in series [1] (purchased analogue series, n = 2), 47.2 µM. In addition, the “Cytotoxicity CC50 / TC50 / IC50” value was 47.2 ± 7.2 µM and 51.6 µM in series [2]; 47.2 ± 7.2 µM in [2] (listed as CID 23602075). In the series with K1 capsule of UTI89, the “Bacterial capsule-dependent orcinol stain, % of the control sample” value is on record as 21%. In the series with K1 capsule of UTI89 (100 μM, K1 strain UTI89), the “Reduction of orcinol-reactive polysaccharides on surface of bacteria” value was about 80%. Besides, the “Orcinol assay, % of control value” in the series with K1 capsule of UTI89 (setting [14]) is given as “Orcinol assay 21%”. Further, the “Plasma Protein Binding (% Bound)” value came out at 99.68 % Bound in [3] (1 μM) and 99.85 % Bound in series [3] (10 μM).

With `CCOc1ccc(-c2cc(NC(=O)c3c(F)cccc3F)c(C(=O)O)s2)cc1` [KUC107784N-02], the “% Inh.” value on panel of 68 receptors [4] came to 8%; on panel of 68 receptors [5] it was 9%; on panel of 68 receptors [6] it was 29%; on panel of 68 receptors [7], 5%; at panel of 68 receptors [8], 7%; at panel of 68 receptors [9], 3%. Besides, the “% Inh.” value is given as 3% at panel of 68 receptors [10], 8% at panel of 68 receptors [11], −11% at panel of 68 receptors [12] and 3% on panel of 68 receptors [13].

(Values after patent publication US9688653B2, “Ethoxyphenyl thienyl compounds and methods for the treatment of bacterial infections” (Duke University, priority 2013, dated 2017).)
